According to US12649755B2, “Plasmin inhibitor, preparation method therefor and application thereof” (SCINNOHUB PHARMACEUTICAL CO., LTD, priority 2020, dated 2026):
pIC50: −log10 of the molar value. Where two headings read alike, the source gives them in different places. Values belong to the molecule of their own block, whether it stands above or below them.

What was measured:
[1] = tested on: plasma clots (human plasma, tPA-induced lysis); experiment: Plasma clot lysis assay; type: biochemical; conditions: for pIC50: human plasma, tPA, clot lysis time by absorbance at 405 nm, read-out: IC50 value for inhibition of plasma clot lysis
Source text: To determine the inhibitory effect of the compounds of the invention on the degradation of plasma clots.
3. […] The time corresponding to the median of the absorption value in the descending section-the time corresponding to the median of the absorption value in the ascending section is the plasma clot degradation time (Clot lysis time).
Taking the log value of the compound concentration as the X-axis, and the percentage inhibition rate as the Y-axis, and dose-response curves were fitted with the software GraphPad Prism 5 by using log (inhibitor) vs. Response-Variable slope to derive IC50 values of compounds inhibiting the degradation of plasma clots. Y=min+(max−min)/(1+10^((LogIC50−X)×Hillslope). Formula: […]

[2] = tested on: human whole blood under hyperfibrinolytic state induced by rtPA; experiment: Human whole blood thromboelastography (TEG) assay; type: biochemical; conditions: for CLT doubling: clot lysis time at the doubling concentration
Procedure: The antifibrinolytic effect of the compounds of the invention in the human whole blood under hyperfibrinolytic state induced by rtPA (recombinant tissue […]) was determined using the Thromboelastogram (TEG).
• Source of human blood: All human blood used in the experiments was provided by healthy volunteers. 3. Experimental Procedure • (1) Preparation of test substance solution: Accurately weigh the test substance, and use normal saline to prepare the test substance to the following concentrations (100×test concentration): • Tranexamic acid (μM): 3000, 1000, 300, 100, 30, 10, 0; • Example 6 (μM): 1000, 300, 100, 30, 10, 3, 0. • (2) Preparation of rt-PA (alteplase for injection): the active dry powder of rtPA was formulated to 25 μg/mL using water for injection in the rtPA package. • (3) Reaction system:
Mix 392 μL of sodium citrate anticoagulated whole blood with 4 μL rtPA and 4 μL test substance, reacted at room temperature, and TEG curve was detected for 2 hours to obtain the time parameter of CLT (clot lysis time). • (4) Result calculations
Taking the log value of the compound concentration as the X-axis and the CLT value as the Y-axis, and dose-response curves were fitted using log (inhibitor) vs. Response-Variable slope (GraphPad Prism 8 software).
The concentration of compound corresponding to doubling the CLT time was calculated.

[3] = Rat PK assay, intravenous administration; type: in vivo; conditions: male, Sprague-Dawley, plasma, SD rats, 1 mg/kg single dose
Procedure: The pharmacokinetic profile of the compounds of the invention in rats was studied by measuring the plasma drug concentration after intravenous administration.
Male Sprague-Dawley rats of SPF grade, 3 rats each group, were obtained from: Shanghai Sippe-Bk Lab Animal Co., Ltd.
The compound was weighed and dissolved in normal saline to prepare a 0.2 mg/mL solution for intravenous administration.
The day before the experiment, the rats were fasted overnight and fed 4 hours after administration.
On the day of the experiment, the rats were administered according to the scheme in the table below. At each time point after administration, approximately 200 μL of blood was collected from the jugular vein and placed in heparin sodium anticoagulation tubes. Blood samples were placed on ice after collection, and the plasma was separated by centrifugation within 1 hour (centrifugation conditions: 6800 g, 6 minutes, 2-8° C.). The separated plasma was stored in a refrigerator at −80° C. for biological sample analysis.
The compound concentration in rat plasma was determined by the following method: • Instruments and equipment: LC-MS/MS-19 (TQ5500, AB SCIEX, USA). • Internal standard: warfarin. • Chromatographic column: ACQUITY UPLC BEH C18, model 1.7 um 2.1*50 mm, purchased from Shenzhen Novah Chemical Technology Co., Ltd.; • Flow rate: 0.60 ml/min. • Column temperature: 40° C. • Mobile phase A: 0.1% formic acid in water. • Mobile phase B: 0.1% formic acid in acetonitrile.
Take 30 μL of the plasma sample prepared from item “3”, add 300 μL MeOH containing 100 ng/ml of internal standard to precipitate protein. The mixture was vortexed for 1 minute and centrifuged at 18000 g for 7 minutes. The supernatant was transferred to a 96-well plate. Inject 4 μL of supernatant into LC-MS/MS for analysis.
The concentration of the compound in rat plasma was determined by the above-mentioned LC-MS/MS analysis method, and pharmacokinetic parameters were calculated by using Phoenix WinNonlin7.0 software according to blood concentration data of different time points.

[4] = tested on: fibrinolysis; conditions: relative to EACA; cited from earlier work
[5] = relative inhibition of plasma clot lysis vs tranexamic acid in vitro, plasma clot lysis

Structure (SMILES): CC(=O)OCOP(=O)(O)c1ccc2c(n1)CCNC2 [Example 18]
IC50 ratio (IC50 Examples/IC50 Tranexamic acid) [1, 5]: 0.23

Structure (SMILES): O=P(O)(O)c1ccc2c(n1)CCNC2 [Example 6, (5,6,7,8-tetrahydro-1,6-naphthyridin-2-yl) Phosphonic Acid Monohydrate]
IC50 ratio (IC50 Examples/IC50 Tranexamic acid) [1, 5]: 0.09
Compound concentration for doubling CLT [2]: 0.12 µM
CLT doubling [2]: 37.06 min

Structure (SMILES): Cl.O=P(O)(O)c1ccc2c(n1)CC(CC1CCCCC1)NC2 (centres unmarked) [Example 28]
IC50 ratio (IC50 Examples/IC50 Tranexamic acid) [1, 5]: 0.07

Structure (SMILES): CC(C)(C)CCC1Cc2nc(P(=O)(O)O)ccc2CN1.Cl (centres unmarked) [Example 27]
IC50 ratio (IC50 Examples/IC50 Tranexamic acid) [1, 5]: 0.1

Structure (SMILES): Cl.O=P(O)(O)c1nc2c(cc1F)CNCC2 [Example 2, (3-fluoro-5,6,7,8-tetrahydro-1,6-naphthyridin-2-yl)phosphonic Acid Hydrochloride]
IC50 ratio (IC50 Examples/IC50 Tranexamic acid) [1, 5]: 0.11
AUC [3]: 30100 ng·h/mL
Cmax [3]: 10100 ng/mL
clearance [3]: 0.555 mL/min/kg
half-life [3]: 4.15 h

Structure (SMILES): CC(C)CC1(CC(C)C)Cc2nc(P(=O)(O)O)ccc2CN1.Cl [Example 31]
IC50 ratio (IC50 Examples/IC50 Tranexamic acid) [1, 5]: 0.1

Structure (SMILES): Cl.O=P(O)(O)c1ccc2c(n1)CC(COCCCO)NC2 (centres unmarked) [Example 22]
IC50 ratio (IC50 Examples/IC50 Tranexamic acid) [1, 5]: 0.14
AUC [3]: 5530 ng·h/mL
Cmax [3]: 6790 ng/mL
clearance [3]: 2.98 mL/min/kg
half-life [3]: 3.58 h

Structure (SMILES): CC(C)CCC1Cc2nc(P(=O)(O)O)ccc2CN1.Cl (centres unmarked) [Example 26]
IC50 ratio (IC50 Examples/IC50 Tranexamic acid) [1, 5]: 0.09

Structure (SMILES): Cl.O=P(O)(O)c1ccc2c(n1)CCNC2 [Example 1, (5,6,7,8-tetrahydro-1,6-naphthyridin-2-yl)phosphonic Acid Hydrochloride]
pIC50 [1]: 6.05
IC50 ratio (IC50 Examples/IC50 Tranexamic acid) [1, 5]: 0.19
AUC [3]: 14000 ng·h/mL
Cmax [3]: 10200 ng/mL
clearance [3]: 1.14 mL/min/kg
half-life [3]: 1.96 h

Structure (SMILES): Cl.O=P(O)(O)c1ccc2c(n1)C(N1CCOCC1)CNC2 (centres unmarked) [Example 7, (8-morpholino-5,6,7,8-tetrahydro-1,6-naphthyridin-2-yl) Phosphonic Acid Hydrochloride]
IC50 ratio (IC50 Examples/IC50 Tranexamic acid) [1, 5]: 0.3

pIC50 [1]: 5.32
AUC [3]: 2820 ng·h/mL
Cmax [3]: 4410 ng/mL
clearance [3]: 5.78 mL/min/kg
half-life [3]: 1.28 h
Structure (SMILES): NC[C@H]1CC[C@H](C(=O)O)CC1 [Tranexamic acid, trans-4-aminomethyl-cyclohexane-carboxylic acid, reference compound]
Compound concentration for doubling CLT [2]: 1.78 µM
CLT doubling [2]: 34.66 min
anti-fibrinolytic activity, times that of EACA [4]: about 10 times

IC50 ratio (IC50 Examples/IC50 Tranexamic acid) [1, 5]: 0.21
Structure (SMILES): Cl.O=P(O)(O)c1ccc2c(n1)CC(CCCc1ccccc1)NC2 (centres unmarked) [Example 25]

Structure (SMILES): CCCC1Cc2nc(P(=O)(O)O)ccc2CN1.Cl (centres unmarked) [Example 12, (7-propyl-5,6,7,8-tetrahydro-1,6-naphthyridin-2-yl) Phosphonic Acid Hydrochloride]
IC50 ratio (IC50 Examples/IC50 Tranexamic acid) [1, 5]: 0.2

Structure (SMILES): Cl.O=P(O)(O)c1ccc2c(n1)C(N1CCS(=O)(=O)CC1)CNC2 (centres unmarked) [Example 21]
IC50 ratio (IC50 Examples/IC50 Tranexamic acid) [1, 5]: 0.25

Structure (SMILES): CC(C)(C)CC1Cc2nc(P(=O)(O)O)ccc2CN1.Cl (centres unmarked) [Example 23]
IC50 ratio (IC50 Examples/IC50 Tranexamic acid) [1, 5]: 0.19

Structure (SMILES): CCOC(=O)OCOP(=O)(O)c1ccc2c(n1)CCNC2 [Example 35]
IC50 ratio (IC50 Examples/IC50 Tranexamic acid) [1, 5]: 0.18

IC50 ratio (IC50 Examples/IC50 Tranexamic acid) [1, 5]: 0.07
Structure (SMILES): COc1ccc(CCC2Cc3nc(P(=O)(O)O)ccc3CN2)cc1.Cl (centres unmarked) [Example 16]

Structure (SMILES): Cl.O=P(O)(O)c1ccc2c(n1)C(O)CNC2 (centres unmarked) [Example 8, (8-hydroxy-5,6,7,8-tetrahydro-1,6-naphthyridin-2-yl) Phosphonic Acid Hydrochloride]
IC50 ratio (IC50 Examples/IC50 Tranexamic acid) [1, 5]: 0.2
AUC [3]: 6660 ng·h/mL
Cmax [3]: 5990 ng/mL
clearance [3]: 2.44 mL/min/kg
half-life [3]: 1.74 h

Structure (SMILES): Cl.O=P(O)(O)c1ccc2c(n1)CC(CCC1CCCCC1)NC2 (centres unmarked) [Example 29]
IC50 ratio (IC50 Examples/IC50 Tranexamic acid) [1, 5]: 0.09

Structure (SMILES): Cl.O=P(O)(c1ccccc1)c1ccc2c(n1)CCNC2 [Example 17]
IC50 ratio (IC50 Examples/IC50 Tranexamic acid) [1, 5]: 0.2
AUC [3]: 2820 ng·h/mL
Cmax [3]: 4090 ng/mL
clearance [3]: 5.83 mL/min/kg
half-life [3]: 1.53 h

Structure (SMILES): Cl.O=P(O)(O)c1ccc2c(n1)CC(CCc1ccccc1)NC2 (centres unmarked) [Example 13, (7-phenylethyl-5,6,7,8-tetrahydro-1,6-naphthyridin-2-yl) Phosphonic Acid Hydrochloride]
IC50 ratio (IC50 Examples/IC50 Tranexamic acid) [1, 5]: 0.2

Structure (SMILES): Cl.O=P(O)(O)c1ccc2c(n1)C(OCCO)CNC2 (centres unmarked) [Example 9, (8-(2-hydroxyethoxy)-5,6,7,8-tetrahydro-1,6-naphthyridin-2-yl) Phosphonic Acid Hydrochloride]
IC50 ratio (IC50 Examples/IC50 Tranexamic acid) [1, 5]: 0.25

Structure (SMILES): Cl.O=P(O)(O)c1ccc2c(n1)CC(Cc1ccccc1)NC2 (centres unmarked) [Example 30]
IC50 ratio (IC50 Examples/IC50 Tranexamic acid) [1, 5]: 0.75

Structure (SMILES): CC(C)C1Cc2nc(P(=O)(O)O)ccc2CN1.Cl (centres unmarked) [Example 24]
IC50 ratio (IC50 Examples/IC50 Tranexamic acid) [1, 5]: 0.14

Structure (SMILES): Cl.O=P(O)(O)c1ccc2c(n1)C(N1CCSCC1)CNC2 (centres unmarked) [Example 20]
IC50 ratio (IC50 Examples/IC50 Tranexamic acid) [1, 5]: 0.21

Structure (SMILES): CCP(=O)(O)c1ccc2c(n1)CCNC2.Cl [Example 3, Ethyl (5,6,7,8-tetrahydro-1,6-naphthyridin-2-yl)-phosphinic Acid Hydrochloride]
IC50 ratio (IC50 Examples/IC50 Tranexamic acid) [1]: 0.86

Structure (SMILES): Cl.O=P(O)(O)c1ccc2c(n1)C(F)(F)CNC2 [Example 5, (8,8-difluoro-5,6,7,8-tetrahydro-1,6-naphthyridin-2-yl) Phosphonic Acid Hydrochloride]
IC50 ratio (IC50 Examples/IC50 Tranexamic acid) [1, 5]: 1.3

Structure (SMILES): Cl.O=P(O)(O)c1ccc2c(n1)CC1(CCC1)NC2 [Example 32]
IC50 ratio (IC50 Examples/IC50 Tranexamic acid) [1, 5]: 0.7

Structure (SMILES): CC(C)C(=O)OCOP(=O)(O)c1ccc2c(n1)CCNC2 [Example 19]
IC50 ratio (IC50 Examples/IC50 Tranexamic acid) [1, 5]: 0.26

Structure (SMILES): CC(C)CC1Cc2nc(P(=O)(O)O)ccc2CN1.Cl (centres unmarked) [Example 11, (7-isobutyl-5,6,7,8-tetrahydro-1,6-naphthyridin-2-yl) Phosphonic Acid Hydrochloride]
IC50 ratio (IC50 Examples/IC50 Tranexamic acid) [1, 5]: 0.08

Structure (SMILES): Cl.O=P(O)(CCc1ccccc1)c1ccc2c(n1)CCNC2 [Example 4, Phenylethyl (5,6,7,8-tetrahydro-1,6-naphthyridin-2-yl) Phosphinic Acid Hydrochloride]
IC50 ratio (IC50 Examples/IC50 Tranexamic acid) [1, 5]: 0.36

Structure (SMILES): Cl.O=P(O)(O)c1ccc2c(n1)CC1(CCCCC1)NC2 [Example 34]
IC50 ratio (IC50 Examples/IC50 Tranexamic acid) [1, 5]: 0.29

Structure (SMILES): CCOP(=O)(O)c1ccc2c(n1)CCNC2.Cl [Example 15]
IC50 ratio (IC50 Examples/IC50 Tranexamic acid) [1, 5]: 0.29
AUC [3]: 2830 ng·h/mL
Cmax [3]: 4890 ng/mL
clearance [3]: 5.85 mL/min/kg
half-life [3]: 0.77 h

Structure (SMILES): Cl.O=P(O)(O)c1ccc2c(n1)CC1(CCCC1)NC2 [Example 33]
IC50 ratio (IC50 Examples/IC50 Tranexamic acid) [1, 5]: 0.22
